The results in this text go back to US20060019954A1, “Method for reducing the likelihood of the occurrence of cardiac arrhythmias” (Cedars-Sinai Medical Center, priority 2004, published 2006).

In the assay the test system is SCD canine subjects (myocardial infarction, complete AV block, NGF to left stellate ganglion). The experiment in a line: Effect of BRL 37344 infusion in the canine sudden cardiac death (SCD) model. It is filed as in vivo. The text has this: The canine SCD model is created by inducing myocardial hyperinnervation within the left stellate ganglion in combination with creating a complete atrioventricular (AV) block and inducing a relatively mild myocardial infarction (MI). The AV block is typically created by ablating the AV node of the heart using an ablation catheter and the MI is induced by ligating the left anterior descending portion of the coronary artery. Myocardial hyperinnervation is stimulated by application of nerve growth factor (NGF) or other neurtrophic vectors to the left stellate ganglion. Alternatively, electrical stimulation signals may be applied to the left stellate ganglion.
Four canine groups were evaluated in this study. MI was created in each of the canine subjects by ligating the left anterior descending coronary artery. Complete AV block was created by radiofrequency ablation of the atrioventricular junction in the MI, SCD and RSG Groups. An ICD was used to monitor for the occurrence of ventricular arrhythmias. Nerve growth factor (NGF) was infused by an osmotic pump throughout a 4-5 week period in the left stellate ganglion (LSG) of the canine subjects in the SCD Group and in the right stellate ganglion (RSG) of the canine subjects in the RSG Group. The canine subjects in the SCD Group was characterized by a high incidence of SCD (44%), long QTc intervals and frequent episodes of ventricular tachycardia, whereas the RSG Group had no SCD, short QTc intervals and few episodes of VT.
Two canine groups were studied and compared to ascertain the effect of a β3 adrenergic receptor agonist (BRL 37344) on the incidence of phase-2 VT, typically leading to sudden cardiac death. Table 4 compares the incidence of phase-2 VT, QTc intervals and the size of myocardial infarction (“MI”) of SCD canine subjects and SCD canine subjects receiving BRL 37344 infusion.
β3 adrenergic receptor agonist BRL 37344 was infused subcutaneously by an osmotic pump (2 μg/kg/hr) for two weeks in two canine subjects with myocardial infarction, complete atrioventricular block and nerve growth factor to the left stellate ganglion (BRL Group). Surface ECG was continuously recorded by Data Sciences International (DSI) and analyzed manually.

Structures are written as SMILES.

Take `C[C@H](Cc1ccc(OCC(=O)O)cc1)NC[C@H](O)c1cccc(Cl)c1` [BRL 37344]: for the setting “2 μg/kg/hr by osmotic pump for a two week period, mammalian SCD models”, the “Effect on incidence of ventricular arrhythmias” value is given as “effective in significantly reducing the incidence of ventricular arrhythmias”. Where the note is “SCD canine subjects, BRL 37344 2 μg/kg/hr subcutaneous by osmotic pump for two weeks, n=2, SCD Group without infusion 2.0 ± 2.0 per day”, the “Incidence of Phase-2 VT” value amounted to 0.08±0.11 per day. Besides, under “SCD canine subjects, BRL 37344 2 μg/kg/hr subcutaneous infusion, throughout follow-up, SCD Group without infusion 400 ms”, the “QTc Interval” value was found to be 350 ms. For the setting “SCD canine subjects, BRL 37344 2 μg/kg/hr subcutaneous infusion, SCD Group without infusion 17 ± 4%”, the “Size of MI” value is reported as 16±1.2%. Also, the “Phase-2 VT episodes, first canine subject of the BRL Group” value (short runs of VT episodes observed from day 36 to day 44 after surgery) is “no phase-2 VT for five weeks”. Besides, under “two canine subjects of the BRL Group, followed up for two months”, the “Occurrence of sudden cardiac death during follow-up” value is given as “without SCD”. The “Phase-2 VT episodes, second canine subject of the BRL Group” value (two months follow-up) is reported as “no phase-2 VT episodes”.
